For 37 molecules, IC50 results are on record in patent US20230339937A1, “CONDENSED RING COMPOUNDS THAT INHIBIT H-PGDS” (SATO PHARMACEUTICAL CO., LTD., priority 2020, published 2023).

This test deals with T1, Recombinant human H-PGDS (Homo sapiens, UniProt O60760).
T1 construct: made in house; host or cells: E. coli
As to the kind of experiment: H-PGDS inhibitory activity (prostaglandin D2 production from prostaglandin H2, measured by LC-MS/MS). It counts as biochemical. The settings on record: recombinant human H-PGDS 1.0 nM expressed in E. coli; prostaglandin H2 25 μM; preincubated 15 minutes on ice, reacted on ice for 1 minute; concentration that inhibits prostaglandin D2 production by 50%. The procedure, abridged:
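Recombinant human H-PGDS (E. coli-expressed, 1.0 nM final) preincubated with compound 15 min on ice in 20 mM Tris-HCl pH 8.0, 2 mM MgCl2, 2 mM GSH, 0.5 mg/mL γ-globulin. Reaction with 25 µM PGH2 run 1 min on ice, stopped with FeCl2/citric acid, PGD2 quantified by LC-MS/MS. Activity expressed as % of DMSO control after subtracting non-enzymatic PGD2.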

T1 sequence (O60760 whole entry): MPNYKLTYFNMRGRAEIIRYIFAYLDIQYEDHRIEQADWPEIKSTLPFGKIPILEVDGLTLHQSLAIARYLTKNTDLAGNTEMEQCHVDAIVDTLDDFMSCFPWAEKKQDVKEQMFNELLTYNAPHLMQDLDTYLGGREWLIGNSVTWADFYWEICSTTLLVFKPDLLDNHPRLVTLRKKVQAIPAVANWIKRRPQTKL

`CC(C)(O)[C@H]1CC[C@H](NC(=O)c2ccc(-c3nccc4occc34)c(C#N)c2)CC1` [Example 133, 3-cyano-4-(furo[3,2-c]pyridin-4-yl)-N-[trans-4-(2-hydroxypropan-2-yl)cyclohexyl]benzamide]: the IC50 turned out to be 16 nM. Consider `CC(C)(O)[C@H]1CC[C@H](NC(=O)c2ccc(-c3nccc4occc34)c(O)c2)CC1` [Example 134, 4-(furo[3,2-c]pyridin-4-yl)-3-hydroxy-N-[trans-4-(2-hydroxypropan-2-yl)cyclohexyl]benzamide], for which the IC50 is 6.6 nM. Then `CC(C)(O)[C@H]1CC[C@H](NC(=O)c2ccc(-c3ncc(CO)c4occc34)cc2)CC1` [Example 135, 4-[7-(hydroxymethyl)furo[3,2-c]pyridin-4-yl]-N-[trans-4-(2-hydroxypropan-2-yl)cyclohexyl]benzamide], with 14 nM; and `CC(C)(O)[C@H]1CC[C@H](NC(=O)c2ccc(-c3ncc(F)c4occc34)cc2)CC1` [Example 136, 4-(7-fluorofuro[3,2-c]pyridin-4-yl)-N-[trans-4-(2-hydroxypropan-2-yl)cyclohexyl]benzamide], with 9 nM; and `C=Cc1cnc(-c2ccc(C(=O)N[C@H]3CC[C@H](C(C)(C)O)CC3)cc2)c2ccoc12` [Example 137, N-[trans-4-(2-hydroxypropan-2-yl)cyclohexyl]-4-(7-vinylfuro[3,2-c]pyridin-4-yl)benzamide], with 12 nM. With `CCc1cnc(-c2ccc(C(=O)N[C@H]3CC[C@H](C(C)(C)O)CC3)cc2)c2ccoc12` [Example 138, 4-(7-ethylfuro[3,2-c]pyridin-4-yl)-N-[trans-4-(2-hydroxypropan-2-yl)cyclohexyl]benzamide], the half-maximal inhibitory concentration (IC50) was found to be 15 nM.

On to `CC(C)(O)[C@H]1CC[C@H](NC(=O)c2ccc(-c3ncc(C#N)c4occc34)cc2)CC1` [Example 139, 4-(7-cyanofuro[3,2-c]pyridin-4-yl)-N-[trans-4-(2-hydroxypropan-2-yl)cyclohexyl]benzamide], for which the IC50 is 251 nM. Then `CC(C)(O)[C@H]1CC[C@H](NC(=O)c2ccc(-c3ncc(C(N)=O)c4occc34)cc2)CC1` [Example 140, 4-(4-([trans-4-(2-hydroxypropan-2-yl)cyclohexyl]carbamoyl)phenyl)furo[3,2-c]pyridine-7-carboxamide], with 224 nM; and `CC(O)c1cnc(-c2ccc(C(=O)N[C@H]3CC[C@H](C(C)(C)O)CC3)cc2)c2ccoc12` (stereo partly drawn) [Example 141, 4-[7-(1-hydroxyethyl)furo[3,2-c]pyridin-4-yl]-N-[trans-4-(2-hydroxypropan-2-yl)cyclohexyl]benzamide], with 160 nM; and `O=C(NC1CCNCC1)c1ccc(-c2nccc3occc23)cc1` [Example 142, 4-(furo[3,2-c]pyridin-4-yl)-N-(piperidin-4-yl)benzamide], with 3.4 nM. For `O=C(NC1CCN(c2ncccn2)CC1)c1ccc(-c2nccc3occc23)cc1` [Example 143, 4-(furo[3,2-c]pyridin-4-yl)-N-[1-(pyrimidin-2-yl)piperidin-4-yl]benzamide], the IC50 is 0.78 nM. To `O=C(NC1CCN(c2ncccc2F)CC1)c1ccc(-c2nccc3occc23)cc1` [Example 144, N-[1-(3-fluoropyridin-2-yl)piperidin-4-yl]-4-(furo[3,2-c]pyridin-4-yl)benzamide] belongs 1.5 nM. As for `O=C(NC1CCN(c2cnccn2)CC1)c1ccc(-c2nccc3occc23)cc1` [Example 145, 4-(furo[3,2-c]pyridin-4-yl)-N-[1-(pyrazin-2-yl)piperidin-4-yl]benzamide], the IC50 stood at 1.2 nM. For the molecule `O=C(NC1CCN(c2cc(Cl)ncn2)CC1)c1ccc(-c2nccc3occc23)cc1` [Example 146, N-[1-(6-chloropyrimidin-4-yl)piperidin-4-yl]-4-(furo[3,2-c]pyridin-4-yl)benzamide], the IC50 came out at 1 nM. Take `O=C(NC1CCN(c2cccc(F)n2)CC1)c1ccc(-c2nccc3occc23)cc1` [Example 147, N-[1-(6-fluoropyridin-2-yl)piperidin-4-yl]-4-(furo[3,2-c]pyridin-4-yl)benzamide]: the half-maximal inhibitory concentration (IC50) is 1 nM. Regarding `O=C(NC1CCN(c2ccc(Cl)nn2)CC1)c1ccc(-c2nccc3occc23)cc1` [Example 148, N-[1-(6-chloropyridazin-3-yl)piperidin-4-yl]-4-(furo[3,2-c]pyridin-4-yl)benzamide], the IC50 is 1.8 nM. In the case of `O=C(NC1CCN(c2ccc(F)cn2)CC1)c1ccc(-c2nccc3occc23)cc1` [Example 149, N-[1-(5-fluoropyridin-2-yl)piperidin-4-yl]-4-(furo[3,2-c]pyridin-4-yl)benzamide], the IC50 was 1.8 nM.

With `Cc1ccnc(N2CCC(NC(=O)c3ccc(-c4nccc5occc45)cc3)CC2)c1` [Example 150, 4-(furo[3,2-c]pyridin-4-yl)-N-[1-(4-methylpyridin-2-yl)piperidin-4-yl]benzamide], the IC50 was 1.7 nM.

In the case of `Cc1ccc(N2CCC(NC(=O)c3ccc(-c4nccc5occc45)cc3)CC2)nc1` [Example 151, 4-(furo[3,2-c]pyridin-4-yl)-N-[1-(5-methylpyridin-2-yl)piperidin-4-yl]benzamide], the 50% inhibitory concentration (IC50) was 1.4 nM.

For `Cc1cccc(N2CCC(NC(=O)c3ccc(-c4nccc5occc45)cc3)CC2)n1` [Example 152, 4-(furo[3,2-c]pyridin-4-yl)-N-[1-(6-methylpyridin-2-yl)piperidin-4-yl]benzamide], the 50% inhibitory concentration (IC50) was determined as 2.3 nM. `Cc1cccnc1N1CCC(NC(=O)c2ccc(-c3nccc4occc34)cc2)CC1` [Example 153, 4-(furo[3,2-c]pyridin-4-yl)-N-[1-(3-methylpyridin-2-yl)piperidin-4-yl]benzamide]: the IC50 came out at 4.1 nM. `O=C(NC1CCN(c2ncc(Br)cn2)CC1)c1ccc(-c2nccc3occc23)cc1` [Example 154, N-[1-(5-bromopyrimidin-2-yl)piperidin-4-yl]-4-(furo[3,2-c]pyridin-4-yl)benzamide]: the IC50 is 6.3 nM. As to `Cc1ccnc(N2CCC(NC(=O)c3ccc(-c4nccc5occc45)cc3)CC2)n1` [Example 155, 4-(furo[3,2-c]pyridin-4-yl)-N-[1-(4-methylpyrimidin-2-yl)piperidin-4-yl]benzamide], the IC50 amounted to 1.5 nM. For `Cc1cnc(N2CCC(NC(=O)c3ccc(-c4nccc5occc45)cc3)CC2)nc1` [Example 156, 4-(furo[3,2-c]pyridin-4-yl)-N-[1-(5-methylpyrimidin-2-yl)piperidin-4-yl]benzamide], the IC50 came out at 1.6 nM.

On to `O=C(NC1CCN(c2ncc(F)cn2)CC1)c1ccc(-c2nccc3occc23)cc1` [Example 157, N-[1-(5-fluoropyrimidin-2-yl)piperidin-4-yl]-4-(furo[3,2-c]pyridin-4-yl)benzamide], for which the IC50 was 3 nM.

For the molecule `CCOC(=O)c1cnc(N2CCC(NC(=O)c3ccc(-c4nccc5occc45)cc3)CC2)nc1` [Example 158, Ethyl 2-{4-[4-(furo[3,2-c]pyridin-4-yl)benzamide]piperidin-1-yl}pyrimidine-5-carboxylate], the IC50 was found to be 0.69 nM. To `O=C(NC1CCN(c2ccnc(F)c2)CC1)c1ccc(-c2nccc3occc23)cc1` [Example 159, N-[1-(2-fluoropyridin-4-yl)piperidin-4-yl]-4-(furo[3,2-c]pyridin-4-yl)benzamide] belongs 1.3 nM; to `O=C(NC1CCN(c2ncc(CO)cn2)CC1)c1ccc(-c2nccc3occc23)cc1` [Example 160, 4-(furo[3,2-c]pyridin-4-yl)-N-{1-[5-(hydroxymethyl)pyrimidin-2-yl]piperidin-4-yl}benzamide], 2.1 nM. Consider `CN(C)c1ccnc(N2CCC(NC(=O)c3ccc(-c4nccc5occc45)cc3)CC2)n1` [Example 161, N-{1-[4-(dimethylamino)pyrimidin-2-yl]piperidin-4-yl}-4-(furo[3,2-c]pyridin-4-yl)benzamide], for which the IC50 came out at 2 nM. With `COc1ccnc(N2CCC(NC(=O)c3ccc(-c4nccc5occc45)cc3)CC2)n1` [Example 162, 4-(furo[3,2-c]pyridin-4-yl)-N-[1-(4-methoxypyrimidin-2-yl)piperidin-4-yl]benzamide], the IC50 is 1.9 nM. `COc1cc(OC)nc(N2CCC(NC(=O)c3ccc(-c4nccc5occc45)cc3)CC2)n1` [Example 163]: the IC50 was 2.6 nM. Take `N#Cc1ccnc(N2CCC(NC(=O)c3ccc(-c4nccc5occc45)cc3)CC2)n1` [Example 164, N-[1-(4-cyanopyrimidin-2-yl)piperidin-4-yl]-4-(furo[3,2-c]pyridin-4-yl)benzamide]: the concentration for half-maximal inhibition (IC50) was found to be 0.78 nM. With `O=C(NC1CCN(c2ccnc(Cl)c2)CC1)c1ccc(-c2nccc3occc23)cc1` [Example 165, N-[1-(2-chloropyridin-4-yl)piperidin-4-yl]-4-(furo[3,2-c]pyridin-4-yl)benzamide], the IC50 came to 1.3 nM. For `N#Cc1cc(N2CCC(NC(=O)c3ccc(-c4nccc5occc45)cc3)CC2)ccn1` [Example 166, N-[1-(2-cyanopyridin-4-yl)piperidin-4-yl]-4-(furo[3,2-c]pyridin-4-yl)benzamide], the IC50 came to 1 nM. To `COC(=O)c1ccnc(N2CCC(NC(=O)c3ccc(-c4nccc5occc45)cc3)CC2)n1` [Example 167, Methyl 2-{4-[4-(furo[3,2-c]pyridin-4-yl)benzamide]piperidin-1-yl}pyrimidine-4-carboxylate] belongs 1.2 nM; to `COc1cnc(N2CCC(NC(=O)c3ccc(-c4nccc5occc45)cc3)CC2)nc1` [Example 168, 4-(furo[3,2-c]pyridin-4-yl)-N-[1-(5-methoxypyrimidin-2-yl)piperidin-4-yl]benzamide], 1.7 nM.

On to `O=C(NC1CCN(c2ccc(CO)cn2)CC1)c1ccc(-c2nccc3occc23)cc1` [Example 169, 4-(furo[3,2-c]pyridin-4-yl)-N-{1-[5-(hydroxymethyl)pyridin-2-yl]piperidin-4-yl}benzamide], for which the half-maximal inhibitory concentration (IC50) turned out to be 3 nM.
